Where two headings read alike, the source gives them in different places. One block for each molecule: values may come before it.
What was measured:
[1] = tested on: MTFM tension probes opened by naïve OT-1 T cells; test: Locking/unlocking of tension probes presenting antiCD3ε in live naïve OT-1 T cells; type: cell-based; details: 200 nM unlocking strand
Experimental: The mechanically opened probes were locked with 200 nM locking strand over 10 min. After rinsing away excess locking strand, the unlocking strand was added at a final concentration of 200 nM, and the tension signal for the same cells was measured as a function of time.
To test locking/unlocking the oligonucleotide complexes in live cells, naïve OT-1 T cells were allowed to adhere and spread on MTFM probe surfaces presenting antiCD3ε antibodies. Cells generated tension signal as the TCR engaged the antibody and transmitted forces to the probes. Subsequently, the Atto647N-tagged locking strand was added for 10 min, washed, and the same T cells were imaged, confirming binding. […] Significant co-localization between the Cy3B (hairpin opening) and the Atto647N (locking strand) signals was found, as evident from linescan analysis and the Pearson's correlation coefficient of 0.72±0.096 (n=20 cells). The excess locking strand was rinsed away before re-imaging. “Erasing” the stored cellular mechanical information was tested. This process was triggered by adding 200 nM unlocking strand to the sample for 2-3 min and confirmed by imaging the same group of T cells. The unlocking process was rapid and reached completion within 60 s. Control experiments using tension probes with a scrambled stem-loop confirmed the specificity of locking real-time tension. […]

[2] = tested on: MTFM hairpin tension probe (stem-loop DNA hairpin); test: Hybridization of locking strand to folded MTFM probe versus unstructured single stranded DNA on model surfaces; type: binding
Experimental: Fluorescence measurements of in-situ hybridization kinetics between the immobilized MTFM probes and the locking oligonucleotides at 200 nM. Locking oligonucleotides were added to surfaces presenting the MTFM tension probes at room temperature and allowed to bind to the hairpin for >1 h. Hybridization was monitored by the increase in fluorescence due to hairpin opening.
The selectivity of lock strand binding to unfolded hairpins over folded ones was measured by using model surfaces that either presented a folded MTFM probe or an unstructured single stranded DNA sequence. The unstructured sequence included a complementary region to the 17mer, thus providing a model for the opened state of the MTFM hairpin probes.
Conversely, mechanical stretching of DNA with large values of tension is expected to hinder hybridization. This is because forming the B-form duplex becomes less energetically favorable. Indeed, when F≈40 pN for a 24mer, this created a barrier to hybridization. […] Given that TCR forces are below 19 pN, estimates of mechano-selectivity are justified here.
Based on these criteria, five different locking oligonucleotides were designed that ranged in length from 25mer to 13mer to screen (FIG. 7A). Gold nanoparticle MTFM tension probe surfaces were prepared (FIG. 9). […] The locking oligonucleotides were tested. The 17mer has the most desirable properties (FIG. 7C). To estimate mechano-selectivity, the differential binding of locking strand to MTFM probe at rest to that of an unstructured sequence (mimicking opened state of MTFM probe) were compared.

[3] = tested on: TCR; details: independent of CD8, cited from earlier work
[4] = tested on: TCR; test: TCR tension imaging of naïve OT-1 cells in real-time and locked state (mechanical sampling and scanning); type: cell-based
Experimental: Mechano-locking enhances TCR-pMHC tension signals by accumulating pulling events that are >4.7 pN. The degree of enhancement and dynamics were evaluated. OT-1 T cells were allowed to engage real-time tension probes and then incubated with unlabeled locking strand (200 nM). The unlabeled locking strand was beneficial here because it eliminated bleed-through from the Atto647N tag. Additionally, avoiding the rinsing steps accelerates the experiments and reduces perturbation of cells.
A time course for TCR-N4 pMHC tension signal accumulation for three cells upon addition of the locking strand was imaged. […] Tension occupancy, which is the fraction of the cell contact area showing tension signal, reached 91% in 10 min. The tension occupancy is an indication of the area that is mechanically scanned by the TCR with F >4.7 pN in search for antigen.
T cells mechanically sample their cognate and near cognate ligands over time. […]
The signal accumulation levels differed when cells were presented with antibody, cognate pMHC, and altered peptide ligands. To quantify these differences on a per cell basis, two parameters were defined: the mechanical sampling factor, which is the fold enhancement in integrated tension signal; and the mechanical scanning factor, which reflects the fold increase in tension occupancy (FIG. 3B). […]

[5] = target: OT-1 T-cell receptor (TCR) on OT-1 CD8+ T cells; test: cell-based or functional assay

Molecule: unlocking strand: strand (SEQ ID NO: 20) that triggers toehold-mediated strand displacement releasing the locking strand (DNA TAGGTAGGGTATAAAATGTTTTTTC; listed as DNA, chemistry not given here)
time to completion of unlocking [1]: ≤ 60 s

Molecule: locking strand: 17mer locking oligonucleotide GAAAAAAACATTTATAC (SEQ ID NO: 6) that hybridizes to mechanically unfolded hairpin; 8 nt toehold at 3′ end for unlocking (listed as DNA, chemistry not fully specified)
mechano-selectivity: differential binding to MTFM probe at rest vs unstructured sequence [2]: greater than two orders of magnitude
hybridization to the MTFM probes among locking oligonucleotides 13mer to 25mer ([2]; 200 nM, room temperature, >1 h): optimal hybridization
hybridization to the closed hairpin tension probe, incubation without saturation ([2]; closed hairpin tension probe): > 8 h
difference in binding rates (lock binding selectivity between mechanically unfolded and folded probes) ([2]; pseudo first-order kinetics, one-phase association fit, unstructured sequence vs folded MTFM probe): 487 fold
hybridization to the unstructured sequence, time to saturation ([2]; unstructured ssDNA with region complementary to the 17mer): saturated in seconds

Molecule: N4: antigenic pMHC, peptide SIINFEKL (SEQ ID NO: 22), OT-1 TCR antigen derived from chicken ovalbumin
average bond lifetime ([3]; at 10 pN): 800 ms
average bond lifetime ([3]; at zero force): 100 ms
enhancement of the integrated tension signal per cell ([4]; 200 nM unlabeled locking strand, n=16 cells): approximately 189 fold
tension occupancy ([4]; in 10 min after locking strand, F >4.7 pN): 91%

Molecule: SIINFEKL (peptide-MHC, part only; not given: MHC molecule, part only) [antigenic N4 pMHC (peptide SIINFEKL, SEQ ID NO: 22)]
enhancement of the integrated N4 tension signal per cell after locking [5]: 189 fold
force transmitted (hairpin probe threshold) [5]: > 4.7 pN
fraction of antigen mechanically scanned over initial contact area within 10 min migration (ICAM-1/pMHC N4 surface) [5]: 81%
mechanical sampling factor [5]: 165 fold
tension occupancy [5]: 91%

Molecule: SIIGFEKL (peptide-MHC, part only; not given: MHC molecule, part only) [mutant pMHC G4 (SIIGFEKL, SEQ ID NO: 24)]
mechanical sampling factor [5]: 10 fold

Results, then the molecule that gave them:

mechanical sampling factor [5]: 33 fold
Molecule: SIIVFEKL (peptide-MHC, part only; not given: MHC molecule, part only) [pMHC V4 (SIIXFEKL, SEQ ID NO: 23, X=V)]

mechanical sampling factor [5]: 66 fold
Molecule: SIIQFEKL (peptide-MHC, part only; not given: MHC molecule, part only) [pMHC Q4 (SIIXFEKL, SEQ ID NO: 23, X=Q)]

From patent publication US20210024985A1, “Devices and Methods Useful for Imaging Transient and Rare Mechanical Events in Cells” (Emory University, priority 2019, published 2021)
